The source of these data is US9446019B2, “Sparstolonin B based pharmaceutical agent for neuroblastoma treatment” (University of South Carolina, priority 2013, dated 2016).

One assay has as its system SH-SY5Y tumors. The assay is classed as in vivo. The procedure:
Six-week-old female homozygous athymic nude mice (nu/nu; strain-Crl:NU-Foxn1nu) were purchased from Charles River Laboratories (Wilmington, Mass.), and housed in the University of South Carolina Animal Research Facility. All animal experiments were carried out in compliance with the National Institute of Health (NIH) guidelines and were approved by the Institutional Animal Care and Use Committee (IACUC) of the University of South Carolina. The animals were maintained at 25° C. with a 12-h light/12-h dark cycle in laminar flow cabinets under specific pathogen-free conditions and given sterile water and food ad libitum.
A neuroblastoma xenograft mice model using SH-SY5Y cells was used. To develop localized subcutaneous tumors, 2×10^7 SH-SY5Y cells were mixed 1:1 with matrigel (BD biosciences, San Jose, Calif.) to make 0.1 ml total volume, and cells were injected subcutaneously into the flank region of mice using sterile 27-gauge needle. The animal weight and general appearance were recorded regularly throughout the experiments. On every third day, tumor size was measured with calipers and tumor volume was calculated using the ellipsoid formula (length×width×height×0.5).
Tumor-bearing mice were divided into two groups—(i) control without SsnB treatment, n=4; and (ii) experimental with SsnB treatment (10 mg/kg body weight per mice), n=4. […]
Paraformaldehyde-fixed paraffin-embedded tumor sections (5 μm thick) were deparaffinized in xylene and rehydrated with sequential immersion in graded ethanol (100%, 95%, 85%, 70% and 50%). […] Primary antibodies were detected with secondary antibodies conjugated with fluorescein isothiocyanate (FITC) (1:4000 dilution in 5% IgG-free BSA/PBS) for 2 h at room temperature. After washing with 1×PBS for 4 times (10 min for each washing), sections were mounted with antifade Vectashield mounting media (Vector Laboratories, Burlingame, Calif.), and signals were visualized under Nikon-E600 fluorescence microscope (Nikon, Tokyo, Japan). […]

Assay [1] deals with caspase-3 in neuroblastoma cells. Description: Cleaved caspase-3 by immunofluorescence and Western blotting. The assay is classed as cell-based, human. How it is done: For immunofluorescence staining, cells grown in Lab-TekII chamber slides (Fisher Scientific, Pittsburgh, Pa.) were treated with SsnB in complete culture medium. After treatments, cells were washed with 1×PBS, fixed with 4% paraformaldehyde/PBS for 20 min, and permeabilized with 0.2% Triton X-100/PBS for 10 min at room temperature. Cells were washed with 1×PBS for 3 times and blocked with 5% immunoglobulin (IgG) free-bovine serum albumin (BSA; Jackson ImmunoResearch Laboratories, West Grove, Pa.) in 1×PBS for overnight at 4° C. Cells were incubated with antibody raised against active form of caspase-3 (Cell Signaling Technology, Danvers, Mass.) diluted in 2.5% BSA/PBS for overnight at 4° C. Primary antibodies were detected with secondary antibodies conjugated with fluorescein isothiocyanate (FITC; Santa Cruz Biotechnology, Dallas, Tex.) for 2 h at room temperature. After washing with 1×PBS, cells were mounted with antifade Vectashield mounting media (Vector Laboratories, Burlingame, Calif.), and signals were visualized under Nikon-E600 fluorescence microscope. Nuclei were counterstained with 4′,6-diamidino-2-phenylindole (DAPI; Sigma).
After treatment with SsnB, cells were collected, washed with 1×PBS, and lysed with 1× cell lysis buffer (Cell Signaling Technology, Danvers, Mass.) containing phenylmethylsulfonyl fluoride (PMSF) and protease inhibitors (aprotinin and leupeptin) for 30 min on ice, and centrifuged at 12000×rpm for 10 min at 4° C. Supernatant (total cell protein) was collected and stored at −80° C. Protein concentration was determined by bicinchoninic acid method using BCA protein assay kit (Pierce/ThermoScientific, Waltham, Mass.). Equal amount of proteins were diluted with 5× Laemmli samples loading buffer and boiled for five minutes. The proteins were subjected to sodium dodecyl sulfate (SDS)-polyacrylamide gel electrophoresis and analyzed by Western blots. Briefly, after electrophoresis, proteins were transferred on polyvinylidene difluoride (PVDF) membrane at 100 volt for 3 h in cold room. Membrane was blocked with 5% non-fat dry milk/TBST (20 mM Tris-Cl, pH 7.4; 150 mM NaCl with 0.1% Tween-20) for 4 h at room temperature followed by incubation in primary antibodies diluted in 2.5% non-fat dry milk/TBST for overnight at 4° C. After washing with TBST, membrane was incubated with secondary antibodies (horseradish peroxidase-conjugated goat anti-rabbit or goat anti-mouse IgG; Santa Cruz Biotechnology, Dallas, Tex.) diluted in 2.5% non-fat dry milk/TBST for 3 h at room temperature. Signals were detected by chemiluminiscence detection kit (Pierce/Thermo Fisher Scientific, Rockford, Ill.). Primary antibodies used were cleaved caspase-3 and β-actin (Cell Signaling Technology), N-myc and p53 (Santa Cruz Biotechnology).
At cellular level, mitochondria- or receptor (Fas/FasL)-mediated pathways activate caspase signaling cascade which in turn induces DNA damage and initiates programmed cell death (apoptosis). To determine whether SsnB-induced cell death is mediated by caspase activation, Western blotting as well as immunofluorescence assay were performed to detect the active form of caspase-3 in neuroblastoma cells treated with SsnB for 2 days (SH-SY5Y and IMR-32 cells), 3 days (NGP cells) or 4 days (SKNF-1 and SK-N-BE(2) cells). The number of cleaved caspase-3 positive cells were quantitated by ImageJ programme and plotted. […]

Molecules are shown by their SMILES.

`O=c1occ2c3c(ccc(O)c13)Oc1ccc(O)cc1-2` [SsnB, 8,5′-dihydroxy-4-phenyl-5,2′-oxidoisocoumarin] registered an average tumor volume with SH-SY5Y tumors (10 mg/kg body weight daily intraperitoneal, 15 days, control 883.75±68.23 mm^3) of 146.5±14.08 mm^3. Moreover, the “cleaved caspase-3 signals in tumors” value in the assay on SH-SY5Y tumors (10 mg/kg, immunohistochemistry, p<0.05 vs control) is on record as “significantly detected”. In addition, the “TUNEL positive cells in tumors” value in the assay with SH-SY5Y tumors (10 mg/kg, p<0.05 vs control) was “increased the number of TUNEL positive cells”. Also, in assay [1] (SsnB 1 μM, nonsignificant vs control), the “cleaved caspase-3 level, Western blot” value was “almost undetectable levels”. For the same molecule, the “cleaved caspase-3 protein bands (17 and 19 kDa), Western blot” value in assay [1] (SsnB 10 μM) is “present”. The “cleaved caspase-3 positive cells (immunofluorescence)” value in assay [1] (SsnB 10 μM vs DMSO or SsnB 1 μM) is given as “significantly increased”. For the same molecule, the “exposure time at which caspase-3 cleavage is seen” value in assay [1] (SsnB 10 μM, SH-SY5Y cells, time points 6, 12, 24, 48 h) was at most 6 h.
